For assay [1], the system named is E. coli 25922. In words: Antibacterial activity MIC, Gram- (Table 9). In kind it is cell-based. Conditions: Escherichia coli, CAMHB, 35° C., approximately 18 hr. As for the experimental part: (§1) 2 mg of each compound is dissolved in 100 μl of DMSO. The solution is then added to cation-adjusted Mueller Hinton broth (CAMHB), which results in a final compound concentration of 200 μg per ml. The tetracycline compound solutions are diluted to 50 μL volumes, with a test compound concentration of 0.098 μg/ml. Optical density (OD) determinations are made from fresh log-phase broth cultures of the test strains. Dilutions are made to achieve a final cell density of 1×10^6 CFU/ml. At OD=1, cell densities for different genera should be approximately:
(§2) 50 μl of the cell suspensions are added to each well of microtiter plates. The final cell density should be approximately 5×10^5 CFU/ml. These plates are incubated at 35° C. in an ambient air incubator for approximately 18 hr. The plates are read with a microplate reader and are visually inspected when necessary. The MIC is defined as the lowest concentration of the tetracycline compound that inhibits growth.

Assay [2] concerns collagen-induced arthritis (CIA) in male DBA/1 mice. In words: CIA model, Example 3 (cumulative scores vs untreated controls). Conditions: Mus musculus. Type of assay: in vivo. The method, then:
The CIA model data were acquired according to the following protocol: • 1. Male DBA/1 mice were anaesthetized by i.p. injection of ketamine/xylazine (1.25 mg/ml:0.25 mg/ml, 100 μl/mouse). • 2. Anaesthetized mice were immunized intradermally at the base of the tail with 0.1 or 0.2 ml of an emulsion composed of 100 or 200 μg bovine type II collagen in Complete Freund's Adjuvant (50 μl/spot x 2 or 4 spots). • 3. At day 21 after the immunization, mice received an intradermal boost of 100 μl of an emulsion composed of 100 μg bovine type II collagen in Incomplete Freund's Adjuvant (50 μl/spot x 2 spots) • 4. After onset of disease symptoms (usually 3-4 days after boost), tetracycline derivatives were administered daily into mice via intraperitoneal or oral routes for 8 to 15 days. Methotrexate (12 mg/kg/day) or dexmethasone (4 mg/kg/day) was used as a control for inflammation suppression. • 5. The disease severity was scored daily for 8-15 days after the appearance of the symptoms. Disease severity was graded as following: • a. Visual clinical score for the presence of inflammation in the fingers/toes of the forepaws and hindpaws: • 1. Erythema and mild swelling confined to the mid-foot (tarsals) or ankle joint • 2. Erythema and mild swelling extending from the ankle to the mid-foot • 3. Erythema and moderate swelling extending from the ankle to the metatarsal joints • 4. Erythema and severe swelling encompassing the ankle, foot, and digits. • b. Clinical swelling score for the presence of paw edema in the forepaws and hindpaws: • Paw thickness was measured daily by an engineering micrometer after isofluorane inhalation or ketamine/xylazine (1.25 mg/ml:0.25 mg/ml, 100 μl/mouse) i.p. injection.
Daily scores and paw swelling measurements for each treatment group of mice were added over the total observation period to obtain a cumulative score. Cumulative scores were compared between untreated controls and treated groups to determine tetracycline-induced inhibition.

Assay [3] has as its system S. aureus RN450. As to the kind of experiment: Antibacterial activity MIC, Gram+ (Table 9). Type of assay: cell-based. Conditions: Staphylococcus aureus, CAMHB, 35° C., approximately 18 hr. As for the experimental part:
as §1, §2

The values below come from US20100190755A1, “TETRACYCLINE COMPOUNDS FOR THE TREATMENT OF RHEUMATOID ARTHRITIS AND RELATED METHODS OF TREATMENT” (priority 2008, published 2010).

The structures appear in SMILES notation. ≈ marks a conversion by molar mass, not a printed value.

In general, MIC refers to the lowest concentration that inhibits growth of the organism. What is called inhibition in vivo is how much of the control response was suppressed. A low value points to a weak effect.

With `CC(=O)c1ccc(O)c2c1C[C@H]1C[C@H]3CC(O)=C(C(N)=O)C(=O)[C@@]3(O)C(O)=C1C2=O` [BC], the results for the MIC in assay [1] and in assay [3] were greater than 64 µg/mL and 4 µg/mL (≈ 9.68 µM), respectively. This compound gave an inhibition in vivo at 25 mg/kg in assay [2] of 72%.
For `CN(C)c1cc(C(F)(F)F)c(O)c2c1C[C@H]1C[C@H]3CC(O)=C(C(N)=O)C(=O)[C@@]3(O)C(O)=C1C2=O` [BD], the minimum inhibitory concentration (MIC) was greater than 64 µg/mL in assay [1] and 0.5 µg/mL (≈ 1.04 µM) in assay [3]. The compound also gave an inhibition in vivo at 25 mg/kg in assay [2] of 44%.
Regarding `CN(C)[C@@H]1C(O)=C(C(N)=O)C(=O)[C@@]2(O)C(O)=C3C(=O)c4c(O)ccc(-c5ccc6c(c5)OCO6)c4C[C@H]3C[C@@H]12` [B], the MIC was 64 µg/mL (≈ 120 µM) in assay [1] and 0.13 µg/mL (≈ 0.243 µM) in assay [3]. The compound also had an inhibition in vivo at 25 mg/kg in assay [2] of 23%.
Take `CC(=O)c1ccc(O)c2c1C[C@H]1C[C@H]3[C@H](N(C)C)C(O)=C(C(N)=O)C(=O)[C@@]3(O)C(O)=C1C2=O` [C]: the minimum inhibitory concentration (MIC) stood at 0.13 µg/mL (≈ 0.285 µM) in assay [1] and 0.06 µg/mL (≈ 0.131 µM) in assay [3]. In assay [2], this compound had an inhibition in vivo at 12 mg/kg of 62%. The same compound returned an inhibition in vivo at 25 mg/kg in assay [2] of 62%.
For the compound `CN(C)c1cc(C2CC2)c(O)c2c1C[C@H]1C[C@H]3CC(O)=C(C(N)=O)C(=O)[C@@]3(O)C(O)=C1C2=O` [Compound AV], the minimum inhibitory concentration (MIC) was greater than 64 µg/mL in assay [1] and 1 µg/mL (≈ 2.2 µM) in assay [3]. In addition, in assay [2], the inhibition in vivo at 25 mg/kg was 48%.
Turning to `CN(C)c1cc(-c2ccccc2)c(O)c2c1C[C@H]1C[C@H]3[C@H](N(C)C)C(O)=C(C(N)=O)C(=O)[C@@]3(O)C(O)=C1C2=O` [Compound A], the MIC in assay [1] is greater than 64 µg/mL; in assay [3], 1 µg/mL (≈ 1.87 µM). In assay [2], this compound had an inhibition in vivo at 25 mg/kg of 42%.
The like results for `CCC(=O)c1cc(N(C)C)c2c(c1O)C(=O)C1=C(O)[C@]3(O)C(=O)C(C(N)=O)=C(O)[C@@H](N(C)C)[C@@H]3C[C@@H]1C2` [Compound M] were, in that order, greater than 64 µg/mL, 8 µg/mL (≈ 15.6 µM) and 25%.
In the case of `CC(=O)c1cc(N(C)C)c2c(c1O)C(=O)C1=C(O)[C@]3(O)C(=O)C(C(N)=O)=C(O)C[C@@H]3C[C@@H]1C2` [Compound T], the MIC in assay [1] was greater than 64 µg/mL. In assay [2], this compound returned an inhibition in vivo at 12 mg/kg of 10% and an inhibition in vivo at 25 mg/kg of 44%. In assay [3], this compound came in with an MIC of 4 µg/mL (≈ 8.76 µM).
Turning to `CCCc1cc(N(C)C)c2c(c1O)C(=O)C1=C(O)[C@]3(O)C(=O)C(C(N)=O)=C(O)[C@@H](N(C)C)[C@@H]3C[C@@H]1C2` [E], the MIC in assay [1] is greater than 64 µg/mL; in assay [3], 2 µg/mL (≈ 4 µM). Also, in assay [2], at 25 mg/kg the inhibition in vivo was 44%.
As to `CCc1ccc2c(c1O)C(=O)C1=C(O)[C@]3(O)C(=O)C(C(N)=O)=C(O)[C@@H](N(C)C)[C@@H]3[C@@H](O)[C@@H]1[C@H]2C` [G], the MIC in assay [1] was found to be 16 µg/mL (≈ 33.9 µM); in assay [3], 0.5 µg/mL (≈ 1.06 µM). The same compound gave an inhibition in vivo at 25 mg/kg in assay [2] of 55%.
For `CCc1cc(N(C)C)c2c(c1O)C(=O)C1=C(O)[C@]3(O)C(=O)C(C(N)=O)=C(O)[C@@H](N(C)C)[C@@H]3C[C@@H]1C2` [H], the MIC in assay [1] was greater than 64 µg/mL; in assay [3], 0.5 µg/mL (≈ 1.03 µM). This compound displayed an inhibition in vivo at 25 mg/kg in assay [2] of 41%.
Regarding `CO/N=C(\C)c1cc(N(C)C)c2c(c1O)C(=O)C1=C(O)[C@]3(O)C(=O)C(C(N)=O)=C(O)[C@@H](N(C)C)[C@@H]3C[C@@H]1C2` [K], the values for the minimum inhibitory concentration (MIC) in assay [1] and in assay [3] were greater than 64 µg/mL and 4 µg/mL (≈ 7.57 µM), respectively. The same compound displayed an inhibition in vivo at 25 mg/kg in assay [2] of 30%.
The like results for `CN(C)[C@@H]1C(O)=C(C(N)=O)C(=O)[C@@]2(O)C(O)=C3C(=O)c4c(O)ccc(C5=CCNCC5)c4C[C@H]3C[C@@H]12` [L] were, in that order, 64 µg/mL (≈ 129 µM), 2 µg/mL (≈ 4.04 µM) and 48%.
The like results for `CN(C)[C@@H]1C(O)=C(C(N)=O)C(=O)[C@@]2(O)C(O)=C3C(=O)c4c(O)ccc(-c5ccc(O)cc5)c4C[C@H]3C[C@@H]12` [N] were, in that order, 0.5 µg/mL (≈ 0.987 µM), 0.06 µg/mL (≈ 0.118 µM) and 21%.
For `CN(C)c1cc(-c2ncco2)c(O)c2c1C[C@H]1C[C@H]3[C@H](N(C)C)C(O)=C(C(N)=O)C(=O)[C@@]3(O)C(O)=C1C2=O` [O], the minimal inhibitory concentration (MIC) is greater than 64 µg/mL in assay [1] and 32 µg/mL (≈ 61 µM) in assay [3]. This compound also gave an inhibition in vivo at 25 mg/kg in assay [2] of 26%.
Consider `CN(C)c1cc(-c2ccsc2)c(O)c2c1C[C@H]1C[C@H]3[C@H](N(C)C)C(O)=C(C(N)=O)C(=O)[C@@]3(O)C(O)=C1C2=O` [P], for which the MIC in assay [1] was greater than 64 µg/mL; in assay [3] it was 0.5 µg/mL (≈ 0.927 µM). Also, in assay [2], the inhibition in vivo at 25 mg/kg is 34%.
Regarding `CN(C)[C@@H]1C(O)=C(C(N)=O)C(=O)[C@@]2(O)C(O)=C3C(=O)c4ccccc4C[C@H]3C[C@@H]12` [Q], the MIC was determined as 32 µg/mL (≈ 80.3 µM) in assay [1] and 0.5 µg/mL (≈ 1.25 µM) in assay [3]. In assay [2], this compound displayed an inhibition in vivo at 25 mg/kg of 28%.
The like results for `CN(C)c1ccc(-c2cc(N(C)C)c3c(c2O)C(=O)C2=C(O)[C@]4(O)C(=O)C(C(N)=O)=C(O)[C@@H](N(C)C)[C@@H]4C[C@@H]2C3)cc1` [R] were, in that order, greater than 64 µg/mL, 2 µg/mL (≈ 3.47 µM) and 32%.
Regarding `CN(C)c1cc(-c2ccc(C(N)=O)cc2)c(O)c2c1C[C@H]1C[C@H]3[C@H](N(C)C)C(O)=C(C(N)=O)C(=O)[C@@]3(O)C(O)=C1C2=O` [S], the MIC in assay [1] and in assay [3] was greater than 64 µg/mL each time. For the same compound, the inhibition in vivo at 25 mg/kg in assay [2] came out at 46%.
With `CN(C)c1cc(C(=O)O)c(O)c2c1C[C@H]1C[C@H]3CC(O)=C(C(N)=O)C(=O)[C@@]3(O)C(O)=C1C2=O` [U], the MIC in assay [1] and in assay [3] was greater than 64 µg/mL each time. Besides, the inhibition in vivo at 25 mg/kg in assay [2] stood at 50%.
On to `CCCNC(=O)c1cc(N(C)C)c2c(c1O)C(=O)C1=C(O)[C@]3(O)C(=O)C(C(N)=O)=C(O)C[C@@H]3C[C@@H]1C2` [V], for which the results for the MIC in assay [1] and in assay [3] were greater than 64 µg/mL and 2 µg/mL (≈ 4 µM), respectively. The compound also came in with an inhibition in vivo at 25 mg/kg in assay [2] of 43%.
The like results for `CN(C)c1cc(-c2ncco2)c(O)c2c1C[C@H]1C[C@H]3CC(O)=C(C(N)=O)C(=O)[C@@]3(O)C(O)=C1C2=O` [X] were, in that order, greater than 64 µg/mL, 2 µg/mL (≈ 4.15 µM) and 40%.
The like results for `CN(C)c1cc(C(=O)N2CCCCC2)c(O)c2c1C[C@H]1C[C@H]3CC(O)=C(C(N)=O)C(=O)[C@@]3(O)C(O)=C1C2=O` [Y] were, in that order, greater than 64 µg/mL, greater than 64 µg/mL and 22%.
The like results for `CCO/N=C(\C)c1cc(N(C)C)c2c(c1O)C(=O)C1=C(O)[C@]3(O)C(=O)C(C(N)=O)=C(O)[C@@H](N(C)C)[C@@H]3C[C@@H]1C2` [Z] were, in that order, greater than 64 µg/mL, 4 µg/mL (≈ 7.37 µM) and 32%.
